Entries after “also recorded” stand apart in the source; their conditions may differ. Square brackets hold non-standard residues; d marks the D form. Ends that are not written are not given here. Hyp = O=C(O)[C@@H]1C[C@@H](O)CN1

Results on four molecules are retold here after patent US7220402B1, “Alpha-fetoprotein peptides and uses for imaging” (Ordway Research Institute, Inc., priority 2001, dated 2007).

In one data set the test system is immature mouse uterus. Kind of data set: Uterotrophic effect of test agent alone on immature mouse uterus. Conditions: agent alone i.p.; peptide up to 10 μg/mouse.
For data set [1], the system named is MCF-7 human breast cancer xenografts. Particulars: Bennett et al. 1998; cited from earlier work.
In data set [2] the test system is estrogen-receptor-positive T47D human breast cancer xenografts. Kind of data set: Human breast cancer xenograft assay, T47D. It counts as in vivo. Conditions: E2-supplemented SCID mice; peptide 1 μg i.p. twice a day; 30-day observation. In general terms: A xenograft is tissue or cells of one species grown in another, often human tumour cells in immunodeficient mice.

Data set [3] relates to estrogen-receptor-negative MDA-MB-231 human breast cancer xenografts. Kind of data set: Human breast cancer xenograft assay, MDA-MB-231. It counts as in vivo. Particulars: SCID mice, peptide 1 μg i.p. twice a day, tamoxifen 50 μg i.p. once a day, 30-day observation.
Data set [4] relates to MCF-7 human breast cancer xenografts. Kind of data set: Human breast cancer xenograft assay, MCF-7. It counts as in vivo. Particulars: E2-supplemented SCID mice; peptide 1 μg i.p. twice a day, tamoxifen 50 μg i.p. once a day; 30-day observation. The procedure:
FIG. 5 illustrates the anti-estrotrophic activity of hydroxyproline-substituted linear peptide against MCF-7 human breast cancer xenografts. There were five to eight replicate mice per treatment group. Estrogen was provided via a slow release pellet implanted subcutaneously. Peptide was given twice a day i.p. at a dose of 1 μg per mouse. Tumor volumes in each mouse were measured at the time of tumor implantation and at 10-day intervals thereafter during survival laparotomies.
FIGS. 9a and 9b illustrate the effect of AFP-derived peptide on growth of estrogen-receptor-positive MCF-7 and MCF-7/Tarn human breast cancer xenografts. Tumors were implanted as described in Materials and Methods. […] Tumor volumes in each mouse were measured at the time of tumor implantation, again at day 15 after tumor implantation during survival laparotomy and again at day 30 after tumor implantation during necropsy. […]
(§1) Human Breast Cancer Xenograft Assay. […] Tumor growth was monitored during survival laparotomy at 10 day intervals by measurement of the diameters of the short (d) and long axes (D) of each tumor, using a dissecting microscope equipped with an ocular micrometer. Tumor volumes were calculated using the formula (π/6) (d)^2 D, assuming the tumor shape to be an ellipsoid of revolution around its long axis (D). […] Mean tumor volume±standard error in each group was calculated for display of growth curves. […]

The subject of data set [5] is MCF-7 subline made resistant to tamoxifen in culture (MCF-7/Tam xenografts). Kind of data set: Human breast cancer xenograft assay, tamoxifen-resistant MCF-7 subline. Format: in vivo. Particulars: E2-supplemented SCID mice; peptide 1 μg i.p. twice a day, tamoxifen 50 μg i.p. once a day; day 30. How it is done:
FIGS. 9a and 9b illustrate the effect of AFP-derived peptide on growth of estrogen-receptor-positive MCF-7 and MCF-7/Tarn human breast cancer xenografts. Tumors were implanted as described in Materials and Methods. Estrogen (●) was provided via a slow-release pellet of estradiol (E2) implanted s.c. Peptide (▴) was given twice a day i.p. at a dose of 1 μg per injection. […] Tumor volumes in each mouse were measured at the time of tumor implantation, again at day 15 after tumor implantation during survival laparotomy and again at day 30 after tumor implantation during necropsy. There was a minimum of 5 mice per group.
Cell Lines. T47D and MDA-231 human breast cancer cell lines were purchased from the American Type Culture Collection (Manassas, Va.). […]
as §1

Data set [6] concerns E2-stimulated growth of immature mouse uterus. As to the kind of experiment: Immature mouse uterine growth assay (anti-estrotrophic activity). Format: in vivo. Conditions: for optimal dose for inhibition of estrogen-stimulated growth of mouse uterus: i.p., biphasic dose-response (FIG. 1a); for inhibition of the uterotrophic effect of estradiol: Pep 1 μg i.p. one hour before E2 0.5 μg i.p., uteri weighed 22 h later (FIG. 13b). The procedure: FIGS. 1a and 1b illustrate the anti-uterotrophic activity of octapeptide, SEQ ID NO: 2, […], measured in the immature mouse uterine growth assay. Peptide or vehicle control was injected i.p. into immature female Swiss mice. One hour later 0.5 μg of E2 vehicle control was injected i.p. into these mice. Twenty-two hours later, uteri were dissected and weighed. Percent inhibition of E2-stimulated growth of uterus by peptide was calculated as described in Materials and Methods. There were five to eight replicate mice per treatment group.
(§2) Immature Mouse Uterine Growth Assay.
Differences between groups were evaluated, employing the non-parametric Wilcoxon Sum of Ranks test (one-sided). In all cases, growth inhibitions that were greater than 25% were significant at p≦0.05.

A further data set addresses T1, estrogen receptor (Oryctolagus cuniculus, UniProt G1SML6).
T1 sequence (G1SML6 1-598): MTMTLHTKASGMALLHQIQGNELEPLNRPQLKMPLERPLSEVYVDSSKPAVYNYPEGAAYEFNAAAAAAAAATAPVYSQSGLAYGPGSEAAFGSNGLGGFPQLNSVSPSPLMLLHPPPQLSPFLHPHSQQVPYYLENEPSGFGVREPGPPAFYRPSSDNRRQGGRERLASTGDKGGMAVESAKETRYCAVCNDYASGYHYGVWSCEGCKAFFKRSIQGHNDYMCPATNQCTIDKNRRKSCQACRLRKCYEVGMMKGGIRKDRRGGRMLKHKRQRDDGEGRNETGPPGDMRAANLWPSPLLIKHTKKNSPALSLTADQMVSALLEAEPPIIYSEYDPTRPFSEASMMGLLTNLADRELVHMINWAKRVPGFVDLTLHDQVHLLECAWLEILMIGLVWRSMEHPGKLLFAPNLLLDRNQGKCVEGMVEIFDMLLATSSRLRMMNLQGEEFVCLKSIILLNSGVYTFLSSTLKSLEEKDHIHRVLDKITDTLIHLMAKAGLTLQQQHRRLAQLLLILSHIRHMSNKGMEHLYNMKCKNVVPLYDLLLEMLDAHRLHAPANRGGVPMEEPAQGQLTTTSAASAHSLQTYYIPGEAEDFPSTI
As to the kind of experiment: Assessment of estrogen receptor antagonism ([3H]estradiol binding, rabbit uterine cytosol). How it is done: (§3) Rabbit uterine cytosol was used as a source of estrogen receptor.
as §3
Assessment of Estrogen Receptor Antagonism. Commercially obtained rabbit uteri (Pel-Freez Biological, Rogers, Ark.) were used as a source of estrogen receptor. […] Total count tubes received 20 μl of [3H]estradiol and 180 μl of assay buffer. After incubation overnight at 4° C., all but the total count tubes received 300 μl of dextran-coated charcoal suspension; tubes were agitated for 15 min and then centrifuged (1,000×g) for 15 min. Supernatants were decanted into counting vials, scintillant was added, and protein-bound tritium was determined by liquid scintillation counting.

Data set [7] is described as follows: Preliminary pharmacokinetic studies in mice. Format: in vivo.
Data set [8] deals with tamoxifen-stimulated growth of immature mouse uterus. Kind of data set: Inhibition of tamoxifen-stimulated growth of immature mouse uterus. It counts as in vivo. Conditions: Pep 1 μg i.p. one hour before Tam 1.0 μg i.p., uteri weighed 22 h later.
Source text: as §2

For `CC/C(=C(\c1ccccc1)c1ccc(OCCN(C)C)cc1)c1ccccc1` [tamoxifen, reference compound], the “uterotrophic effect on immature mouse uterus” value in the data set on immature mouse uterus is given as “stimulate the growth of the immature mouse uterus”. For the same molecule, the “effect on MCF-7 breast cancer xenograft growth in an earlier study” value in data set [1] is given as “shown to stop MCF-7 breast cancer xenograft growth”. In [2], the “effect on growth (tumor volume vs E2 alone) of T47D xenografts” value is recorded as “prevented growth”. The “effect on growth of MDA-MB-231 xenografts” value in data set [3] was “Neither peptide nor tamoxifen were effective; also recorded: did not affect the growth”. Further, the “effect on growth (tumor volume vs E2 alone) of MCF-7 xenografts” value in data set [4] is “prevented growth; also recorded: no increase in tumor volume”. The “effect on growth (tumor volume vs E2 alone) of tamoxifen-resistant MCF-7 subline xenografts” value in data set [5] is “resistant to tamoxifen in vivo; also recorded: only minimally effective”.

Take “EMTPVNPG (listed as Homo sapiens) [SEQ ID NO: 6, amino acids 472–479 of alpha-fetoprotein]”: in [6], the “optimal dose for inhibition of estrogen-stimulated growth of mouse uterus” value is given as about 1 μg/mouse and the “biological activity of stored inactive peptide after brief treatment with 4M urea” value is on record as “regenerated”.

For “QMTPVNPG (listed as Homo sapiens) [SEQ ID NO: 2]”, the “% Inhibition of E2-Stimulated Growth of Immature Mouse Uterus ± SE” value in data set [6] (Storage Time: Fresh, 1 μg peptide i.p.) is given as 38 ± 3%; in data set [6] (Stored over 1 year (lyophilized, −20° C.), 1 μg peptide i.p.), 0 ± 2%; in data set [6] (after Urea Treatment (4 M urea, room temperature, one hour) of agent II (stored over 1 year) or IV (fresh), 1 μg i.p.) it was 34 ± 4%. In [6] (after five weeks of storage at −20° C. lyophilized, 1 μg per mouse (FIG. 1b)), the “anti-estrotrophic activity after storage (shelf-life)” value was “diminished to insignificant levels”. The “optimal dose for inhibition of estrogen-stimulated growth of mouse uterus” value in data set [6] is 1 μg/mouse. Also, in [6] (left side of peak (FIG. 2b), 1 μg i.p.), the “biological activity of higher molecular weight gel-filtration fraction of aged peptide” value is “biologically inactive”. In addition, the “biological activity of lower molecular weight gel-filtration fraction of aged peptide” value in data set [6] (right side of peak (FIG. 2b), 1 μg i.p.) is listed as “active”. The “biological activity of aged peptide” value in [6] (stored in the lyophilized state at −20° C. for over one year) was “completely biologically inactive”. The “biological activity of stored inactive peptide after brief treatment with 4M urea” value in data set [6] is “restored its biological activity”.

For the molecule “EMTOVNOG (EMT[Hyp]VN[Hyp]G; listed as Homo sapiens) [SEQ ID NO: 4]”, the “effect on growth (tumor volume vs E2 alone) of T47D xenografts” value in [2] is given as “completely prevented tumor growth”. The figures for the “effect on growth of MDA-MB-231 xenografts” value in data set [3] and in data set [3] (listed as AFP-derived peptide) were “Neither peptide nor tamoxifen were effective; also recorded: no effect on the growth” and “no differences in tumor volumes between any of the groups”, respectively. Besides, the “competition/interference with estrogen binding to the estrogen receptor” value with estrogen receptor (cell-free system, no concentration stated) is listed as “does not interfere”. Besides, in the data set with estrogen receptor (peptide concentration range of 10^−10M to 10^−5M), the “interference with E2 binding to ER” value was “no interference”. In addition, the “effect on growth (tumor volume vs E2 alone) of MCF-7 xenografts” value in data set [4] is “prevented growth; also recorded: no significant increase in tumor volume”. Also, in data set [7], the biological half-life result is “two to three”. In addition, the “inhibition of the uterotrophic effect of tamoxifen” value is given as “significantly inhibited” in data set [8] and “inhibited” in data set [8] (listed as peptide). In addition, the “inhibition of the uterotrophic effect of estradiol” value in data set [6] (listed as Pep) is given as “significantly different”; in data set [6] (listed as peptide) it was “inhibited”. Also, the “effect on growth (tumor volume vs E2 alone) of tamoxifen-resistant MCF-7 subline xenografts” value in [5] is on record as “completely prevented the xenograft growth; also recorded: completely stopped the growth”.
